Results published in publication PMC5004293, “Characterization of FRM-36143 as a new γ-secretase modulator for the potential treatment of familial Alzheimer’s disease” (Alzheimer's Research & Therapy, 2016).
pEC50, pIC50: −log10 of the molar value.

What was measured:
[1] = test system: γ-secretase; test: Aβ42 ELISA in mouse primary cortical neurons; format: cell-based; settings: overnight
Procedure: Primary cultures were established from the neocortex of E17 CD1 mouse embryos (Charles River Laboratories, Wilmington, MA, USA). Following tissue dissection and trituration, the cultures were suspended in Neurobasal® medium (Invitrogen, Carlsbad, CA, USA) supplemented with 10 % horse serum (Sigma-Aldrich, St. Louis, MO, USA) and 520 μM L-glutamine. Cells were plated at 50,000 cells/well in 96-well poly-D-lysine-coated plates. Following incubation at 37 °C and 5 % CO2 for 4 h, the plating medium was exchanged with Neurobasal® medium supplemented with 2 % B-27® (Invitrogen), 520 μM of L-glutamine, and 1 % penicillin–streptomycin. […]
Aβ peptide levels were quantified by sandwich ELISA using anti-Aβ38, anti-Aβ40, anti-Aβ42, (BioLegend, Dedham, MA, USA) or anti-Aβ37 for the capture and 4G8-horseradish peroxidase (HRP; BioLegend) for detection. […]
For cell-based assays, freshly collected samples of cultured cell supernatant were added to the plates and incubated at 4 °C for about 24 h. Detection was performed using SureBlue 3,3’,5,5’-tetramethylbenzidine (TMB) peroxidase substrate (KPL, Inc., Gaithersburg, MD, USA) and the plates read on a SpectraMax M5e microplate reader (Molecular Devices, Inc., Sunnyvale, CA, USA). […] EC50 values were calculated from values reported as percentage of DMSO using nonlinear regression, based on a sigmoidal dose–response (variable slope) model.

[2] = test system: Notch processing; test: Notch reporter assay (HeLa 6xCBF1-Luc, NotchΔE); format: cell-based, human; settings: Homo sapiens, overnight
Procedure: The wild-type CBF1 binding element was cloned in front of the SV40 promoter-driven luciferase reporter construct of pGL3pro (Promega, Madison, WI, USA) using the following oligonucleotides: • CBF1 Fw (5’→3’): […] • CBF1 Rv (5’→3’): […]
Oligonucleotides were phosphorylated using T4 polynucleotide kinase and annealed (by heating to 90 °C and cooling to room temperature in a buffer containing 0.1 M NaCl). Plasmid pGL3pro was cleaved with BglII and dephosphorylated using alkaline phosphatase. The oligonucleotide pair was then ligated using T4 ligase with the linearized plasmid DNA. A clone containing 6 copies of the CBF1 element in front of the SV40 promoter was chosen. The 6xCBF1-RE/SV40 promoter was excised from pGL3 using XhoI and HindIII, and the fragment transferred to the pGL4.17 [luc2/Neo] vector (Promega) was opened with the same restriction enzymes.
The full length human Notch in plasmid pCMV6-XL5 (Origene, Rockville, MD, USA) was used to amplify a truncated form of Notch (NotchΔE) containing the 20-amino-acid (a.a.) signal sequence followed by 5 a.a. […]
HeLa cells stably transfected with the 6xCBF1-Luc reporter were transiently transfected with the NotchΔE construct (4 μg DNA/10^6 cells) using Lipofectamine 2000 (Thermo Fisher, Waltham, MA, USA) in 6-well plates. […] Chemiluminescence was then read on an EnVision plate reader (Perkin Elmer).

A pEC50 [1] of 7.28 and a pIC50 [2] of under 5.00 were found for `COc1nc(C2=NOC[C@H](c3cc4ccccc4o3)N2)ccc1-n1cnc(C)c1` [FRM-36143, (R)-5-(benzofuran-2-yl)-3-(6-methoxy-5-(4-methyl-1H-imidazol-1-yl)pyridin-2-yl)-5,6-dihydro-4H-1,2,4-oxadiazine] in this work.
